{"source": "paper PMC6923863", "about": "(BMC Pharmacology & Toxicology, 2019)", "key": {"[1]": {"test_system": "Sprague-Dawley rats", "experiment": "Thermal tail flick latency in rats with saline or morphine osmotic minipumps (opioid tolerance)", "assay_type": "in vivo, rat"}, "[2]": {"test_system": "GABAA Receptor"}, "[3]": {"test_system": "Sprague-Dawley rats", "experiment": "Pre-pulse inhibition (PPI) of acoustic startle and behavioural testing", "assay_type": "in vivo, rat"}, "[4]": {"molecular_target": "T1, HCN1 K^+ Channel (Homo sapiens, UniProt O60741)", "T1 construct": "Eurofins Panlabs Ltd., Taipei, Taiwan 952727", "T1 sequence (O60741 1-890)": "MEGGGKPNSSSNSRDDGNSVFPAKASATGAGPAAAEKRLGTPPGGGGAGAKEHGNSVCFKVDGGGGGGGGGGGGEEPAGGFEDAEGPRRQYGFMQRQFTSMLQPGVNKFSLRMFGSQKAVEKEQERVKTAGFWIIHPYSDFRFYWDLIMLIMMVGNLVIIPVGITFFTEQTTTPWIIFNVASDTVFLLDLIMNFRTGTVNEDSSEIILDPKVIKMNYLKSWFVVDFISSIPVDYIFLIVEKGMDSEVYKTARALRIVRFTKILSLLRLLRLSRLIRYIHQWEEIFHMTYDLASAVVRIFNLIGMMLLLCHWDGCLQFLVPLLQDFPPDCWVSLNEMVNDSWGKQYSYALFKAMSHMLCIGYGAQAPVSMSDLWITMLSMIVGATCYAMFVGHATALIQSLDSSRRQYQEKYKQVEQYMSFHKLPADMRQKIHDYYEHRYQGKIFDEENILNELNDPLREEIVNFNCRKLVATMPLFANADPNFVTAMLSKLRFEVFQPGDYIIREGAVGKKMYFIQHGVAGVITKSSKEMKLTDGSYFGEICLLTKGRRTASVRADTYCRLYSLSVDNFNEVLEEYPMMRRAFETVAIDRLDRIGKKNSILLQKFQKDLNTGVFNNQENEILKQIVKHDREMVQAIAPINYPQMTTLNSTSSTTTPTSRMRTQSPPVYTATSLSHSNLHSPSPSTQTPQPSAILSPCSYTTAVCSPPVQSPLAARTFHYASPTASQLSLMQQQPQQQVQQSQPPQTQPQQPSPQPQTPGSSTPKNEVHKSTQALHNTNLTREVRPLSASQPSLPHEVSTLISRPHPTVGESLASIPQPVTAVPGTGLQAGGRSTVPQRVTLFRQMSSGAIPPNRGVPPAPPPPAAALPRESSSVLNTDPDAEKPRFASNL", "experiment": "Molecular target binding profile: patch-clamp functional assay (Eurofins Panlabs 952727)", "assay_type": "cell-based"}, "[5]": {"molecular_target": "Ca^2+ Channel L-Type (Rattus norvegicus, UniProt P22002)", "sequence (P22002 whole entry)": "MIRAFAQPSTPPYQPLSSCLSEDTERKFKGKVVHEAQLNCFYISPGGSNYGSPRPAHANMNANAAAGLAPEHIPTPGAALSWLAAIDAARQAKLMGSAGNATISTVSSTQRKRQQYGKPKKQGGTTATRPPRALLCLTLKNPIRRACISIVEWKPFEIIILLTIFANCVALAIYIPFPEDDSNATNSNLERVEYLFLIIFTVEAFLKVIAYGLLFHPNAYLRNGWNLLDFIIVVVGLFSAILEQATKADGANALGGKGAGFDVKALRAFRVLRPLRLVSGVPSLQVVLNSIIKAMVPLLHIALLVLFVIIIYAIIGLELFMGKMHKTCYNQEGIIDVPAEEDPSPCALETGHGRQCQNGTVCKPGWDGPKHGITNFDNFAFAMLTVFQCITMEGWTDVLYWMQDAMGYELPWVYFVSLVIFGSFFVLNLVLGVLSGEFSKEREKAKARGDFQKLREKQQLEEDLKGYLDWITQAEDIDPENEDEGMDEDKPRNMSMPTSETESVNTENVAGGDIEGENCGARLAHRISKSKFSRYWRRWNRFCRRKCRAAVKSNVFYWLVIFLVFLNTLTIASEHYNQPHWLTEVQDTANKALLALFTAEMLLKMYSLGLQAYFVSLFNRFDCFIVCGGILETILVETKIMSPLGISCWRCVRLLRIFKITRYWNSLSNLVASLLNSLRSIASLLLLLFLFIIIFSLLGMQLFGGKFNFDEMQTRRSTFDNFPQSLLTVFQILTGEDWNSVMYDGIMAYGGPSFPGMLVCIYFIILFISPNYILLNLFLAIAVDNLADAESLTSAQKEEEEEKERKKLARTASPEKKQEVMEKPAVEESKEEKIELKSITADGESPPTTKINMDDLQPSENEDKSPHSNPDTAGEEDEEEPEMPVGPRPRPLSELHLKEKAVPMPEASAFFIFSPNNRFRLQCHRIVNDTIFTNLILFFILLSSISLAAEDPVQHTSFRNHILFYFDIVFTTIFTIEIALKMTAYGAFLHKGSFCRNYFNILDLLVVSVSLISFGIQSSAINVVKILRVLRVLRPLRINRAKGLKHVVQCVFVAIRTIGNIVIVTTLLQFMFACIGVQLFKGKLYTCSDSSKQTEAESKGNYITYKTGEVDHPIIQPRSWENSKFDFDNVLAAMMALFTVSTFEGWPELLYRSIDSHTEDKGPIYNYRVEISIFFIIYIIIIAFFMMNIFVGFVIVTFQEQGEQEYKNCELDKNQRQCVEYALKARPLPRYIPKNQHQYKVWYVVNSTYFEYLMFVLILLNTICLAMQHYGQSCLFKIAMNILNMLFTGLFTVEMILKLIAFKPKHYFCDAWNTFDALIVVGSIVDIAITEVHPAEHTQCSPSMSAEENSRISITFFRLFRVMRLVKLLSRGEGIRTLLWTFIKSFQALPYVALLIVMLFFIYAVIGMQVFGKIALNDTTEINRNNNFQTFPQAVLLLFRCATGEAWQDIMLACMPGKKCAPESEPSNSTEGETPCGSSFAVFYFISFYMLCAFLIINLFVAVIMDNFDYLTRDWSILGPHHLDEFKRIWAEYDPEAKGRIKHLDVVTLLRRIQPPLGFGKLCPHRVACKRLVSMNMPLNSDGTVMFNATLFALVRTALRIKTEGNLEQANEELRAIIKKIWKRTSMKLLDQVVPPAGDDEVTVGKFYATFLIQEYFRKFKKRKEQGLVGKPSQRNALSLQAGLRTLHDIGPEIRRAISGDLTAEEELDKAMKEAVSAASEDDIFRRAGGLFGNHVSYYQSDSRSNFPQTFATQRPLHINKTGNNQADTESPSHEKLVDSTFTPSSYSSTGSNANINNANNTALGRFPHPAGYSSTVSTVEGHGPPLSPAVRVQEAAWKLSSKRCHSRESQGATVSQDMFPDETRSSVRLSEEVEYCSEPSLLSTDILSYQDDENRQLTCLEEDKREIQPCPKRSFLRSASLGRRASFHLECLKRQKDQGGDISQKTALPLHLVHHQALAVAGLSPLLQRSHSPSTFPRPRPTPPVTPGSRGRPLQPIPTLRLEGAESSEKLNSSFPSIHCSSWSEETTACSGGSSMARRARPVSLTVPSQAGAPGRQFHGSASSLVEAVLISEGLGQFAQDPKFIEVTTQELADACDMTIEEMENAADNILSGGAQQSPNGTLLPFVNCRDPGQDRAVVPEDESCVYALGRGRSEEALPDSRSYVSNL", "assay_type": "binding", "details": "only quoted where inhibition > 15%, read-out: Percent Inhibition at 10 μM"}, "[6]": {"test_system": "Sprague-Dawley rats", "experiment": "Thermal sensitivity (tail flick latency) testing after bolus injection or infusion", "assay_type": "in vivo, rat", "details": "pre-emptive analgesia, hypnotic and sub-hypnotic IV dosing regimens"}, "[7]": {"test_system": "Sprague-Dawley rats", "experiment": "Loss of righting reflex (LORR) following intravenous administration", "assay_type": "in vivo, rat", "details": "for LORR duration, mean (SEM): 12 mg/kg IV over 30 s"}, "[8]": {"test_system": "Sprague-Dawley rats", "experiment": "Behavioural dysfunction scoring in minipump rats", "details": "12 mg/kg IV over 30 s"}}, "data": [{"smiles": "CN1CC[C@]23c4c5ccc(O)c4O[C@H]2[C@@H](O)C=C[C@H]3[C@H]1C5", "note": "[morphine]", "values": [{"measurement": "Thermal tail flick latency compared with vehicle treated animals", "setting": "[1]; 24 h of continuous morphine treatment via minipump (6 mg daily)", "result": "significant antinociception"}, {"measurement": "Time to development of tolerance to thermal tail flick stimuli", "setting": "[1]; continuous subcutaneous pump administration of morphine (6 mg/day) in rats", "result": "3 to 4", "unit": "days"}]}, {"smiles": "CNC1(c2ccccc2Cl)CCCCC1=O", "note": "(stereo not drawn) [Ketamine]", "values": [{"measurement": "Percent Inhibition at 10 μM", "setting": "[2]; 10 μM, only quoted where inhibition > 15%", "result": "− (Percent Inhibition at 10 μM only quoted where inhibition > 15%)"}, {"measurement": "IC50", "setting": "[2]; radioligand binding", "result": "> 10", "unit": "µM"}, {"measurement": "Pre-pulse inhibition (PPI) effect", "setting": "[3]; 5 minutes after IV dosing, ketamine 10 mg/kg, KEA-1010 11 mg/kg, KEA-1037 10 mg/kg", "result": "disrupted the PPI effect"}, {"measurement": "Percent PPI or startle amplitude", "setting": "[3]; 30 min after drug administration", "result": "No statistically significant differences"}, {"measurement": "Ataxia", "setting": "[3]; behavioural testing post dosing, ketamine 10 mg/kg, KEA-1010 11 mg/kg, KEA-1037 10 mg/kg IV", "result": "greater ataxia at 23 and 48 min post dosing compared with vehicle"}, {"measurement": "IC50", "setting": "[4]", "result": "> 100", "unit": "µM"}, {"measurement": "inhibition at 100 µM", "setting": "[4]; patch-clamp assay quoted at 100 μM, not 10 μM (top dose employed), read-out: Percent Inhibition", "result": 15, "unit": "%"}, {"measurement": "inhibition at 10 µM", "setting": "[5]", "result": 24, "unit": "%"}, {"measurement": "Thermal tail flick latency, augmentation of morphine analgesia", "setting": "[1]; 12 mg/kg IV over 30 s, morphine minipump animals, day one", "result": "augmented morphine mediated analgesia"}, {"measurement": "Thermal tail flick latency in opioid tolerant rats", "setting": "[1]; 12 mg/kg IV over 30 s, morphine minipump rats, day six", "result": "TFL prolongation of similar magnitude to that of saline mini-pump subjects"}, {"measurement": "Thermal tail flick latency", "setting": "[1]; 12 mg/kg IV over 30 s, opioid-naïve rats, day one post saline minipump insertion", "result": "Prolongation of thermal tail flick"}, {"measurement": "Thermal tail flick latency", "setting": "[1]; 12 mg/kg IV over 30 s, saline minipump rats, day six", "result": "prolonged tail flick latency"}, {"measurement": "Thermal tail flick latency", "setting": "[6]", "result": "prolonged thermal tail flick latency"}, {"measurement": "LORR duration, mean (SEM)", "setting": "[7]; rats with morphine minipump (6 mg daily), day 1", "result": "247.0 (28.4) seconds"}, {"measurement": "LORR duration, mean (SEM)", "setting": "[7]; rats with morphine minipump (6 mg daily), day 6", "result": "272.5 (12.9) seconds"}, {"measurement": "LORR duration, mean (SEM)", "setting": "[7]; rats with saline minipump, day 1", "result": "189.2 (23.8) seconds"}, {"measurement": "LORR duration, mean (SEM)", "setting": "[7]; rats with saline minipump, day 6", "result": "277.0 (16.9) seconds"}, {"measurement": "Induction of LORR, animals affected", "setting": "[7]; 12 mg/kg over 30 s, rats with saline or morphine minipumps, days one and six", "result": "all animals"}, {"measurement": "ED50", "setting": "[7]; Rattus norvegicus, rats, 30 s bolus intravenous injection", "result": 9.6, "unit": "mg/kg"}, {"measurement": "Duration of loss of righting, mean (SEM)", "setting": "[7]; rats, 10 minute hypnotic IV infusion (KEA-1010 total 56 mg/kg; ketamine total 28 mg/kg)", "result": "418.0 (86.4) seconds"}, {"measurement": "Duration of loss of righting, mean (SEM)", "setting": "[7]; rats, hypnotic IV bolus over 15 s (KEA-1010 11 mg/kg; ketamine 10 mg/kg)", "result": "491.8 (67.7) seconds"}, {"measurement": "Slope of LORR duration vs. dose curves", "setting": "[7]; rats, intravenous injection over 30 s", "result": 69.8, "unit": "s/mg/kg"}, {"measurement": "Time of gradual return to normal behavioural patterns", "setting": "[8]; minipump rats", "result": "40 to 50", "unit": "min"}, {"measurement": "Time of maximal behavioural dysfunction", "setting": "[8]; minipump rats", "result": 5, "unit": "min"}, {"measurement": "Behavioural dysfunction score / behavioural aberration", "setting": "[8]; saline or morphine minipump rats, days one and six", "result": "profound behavioural aberration"}]}]}
